The text below walks through data of patent US5137811A, “Method for diagnosing periodontal diseases with a substrate specific for aminopeptidase activity of periodontopathic bacteria” (Sunstar Kabushiki Kaisha, priority 1986, dated 1992).

One assay deals with Treponema denticola. Kind of assay: Hydrolytic activity of oral anaerobe cell suspension on aminopeptidase substrates (Experiment 1). Conditions: four strains, substrate 0.2 mM, pH 7.0, 37° C., 60 minutes, Table 1. The format is cell-based. As for the experimental part:
(§1) Oral anaerobes, i.e., four strains of Treponema denticola, five strains of B. gingivalis, four strains of Actinobacillus actinomycetemcomitans, four strains of Capnocytophaga sp. and three strains of Fusobacterium nucleatum were tested for hydrolytic activity to the substrate of aminopeptidase enzyme as follows.
(§2) The strains of Treponema were anaerobically cultivated using TYGVS media at 37° C. for 7 days, while other bacterial strains were cultivated using brain heart infusion broth at 37° C. for 48 to 72 hours. Each culture was diluted to obtain a bacterial cell suspension, the absorption at 660 nm of which was 1.0.
(§3) Substrate compounds for aminopeptidase enzyme having various color developing groups derived from β-naphthylamine were dissolved in 0.1M Tris-HCl buffer (pH 7.0) at the concentration of 0.2 mM to obtain substrate solutions.
(§4) To the substrate solution (1.5 ml) was added the above cell suspension (0.3 ml) and reacted at 37° C. for 60 minutes. After completion of the reaction, a coloring reagent [prepared by dissolving diazonium salt of Garnet GBC in 1M acetate buffer (containing 10% Tween 20, pH: 4.2) at the concentration of 0.5 mg/ml] was added and, after 15 minutes, the absorption at 525 nm was determined with a spectrophotometer.
(§5) On the basis of the average amount of released β-naphthylamine in each strain, the hydrolytic activity was expressed as follows: […]

The test system of another assay is Bacteroides gingivalis. The description is as above. The format is cell-based. Conditions: five strains, substrate 0.2 mM, pH 7.0, 37° C., 60 minutes, Table 1. As to the method:
as §1, §2, §3, §4, §5

Assay [1] deals with Actinobacillus actinomycetemcomitans. The description is as above. The format is cell-based. Conditions: four strains, substrate 0.2 mM, pH 7.0, 37° C., 60 minutes, Table 1. As for the experimental part: as §1, §2, §3, §4, §5
The next assay deals with Fusobacterium nucleatum. Described as above. The format is cell-based. Conditions: three strains, substrate 0.2 mM, pH 7.0, 37° C., 60 minutes, Table 1. As to the method: as §1, §2, §3, §4, §5
In a further assay the test system is Capnocytophaga sp. The assay is described as above. Conditions: four strains, substrate 0.2 mM, pH 7.0, 37° C., 60 minutes, Table 1. The format is cell-based. As to the method: as §1, §2, §3, §4, §5
Assay [2] concerns periodontopathic bacteria specific aminopeptidase activity. Kind of assay: Hydrolytic activity of gingival crevicular fluid specimens, visually evaluated (Experiment 4). The format is biochemical. Set-up: key: -: orange; +: dark orange; ++: brown; +++: dark brown. As for the experimental part: as §3, §4
Specimens of gingival crevicular fluid were collected with paper points from five subjects who were considered to be healthy from their clinical state, six subjects with gingivitis and six subjects with periodontitis. Each specimen was dispersed in Ringer's solution (1.5 ml), and the relative amount of spirochete to total bacteria: [formula] was determined with a phase contrast microscope. Further, the Ringer's solution (0.3 ml) was tested for hydrolytic activity using the substrate solution prepared in the same manner as described in Experiment 1. As substrates, there were used compounds of the formula [1], i.e., N-benzoylvalyl-glycyl-arginine-β-naphthylamide (BzVGR) and N-carbobenzoxy-valyl-glycyl-arginine-β-naphthylamide (CxVGR) were used.
In table 4, hydrolytic activity was visually evaluated and expressed as follows: […]

Where a SMILES comes first, the peptide text is derived from it. The star is where a group is joined. βNA = c1ccc2cc(N*)ccc2c1; Cbz = O=C(OCc1ccccc1)*; Bz = O=C(c1ccccc1)*

For `CC(C)[C@H](NC(=O)c1ccccc1)C(=O)NCC(=O)N[C@@H](CCCNC(=N)N)C(=O)Nc1ccc2ccccc2c1` [BzVGR, N-benzoyl-valyl-glycyl-arginine-β-naphthylamide] (Bz-Val-Gly-Arg-βNA), the “hydrolytic activity (average amount of released β-naphthylamine)” value is reported as “+++ (release amount≥40 nmol/ml)” in the assay on Treponema denticola; “+++ (release amount≥40 nmol/ml)” with Bacteroides gingivalis; “- (release amount<5 nmol/ml)” in assay [1]; “- (release amount<5 nmol/ml)” in the assay with Fusobacterium nucleatum; “- (release amount<5 nmol/ml)” with Capnocytophaga sp.. Besides, the “hydrolytic activity, visually evaluated” value is given as “+” in assay [2] (Gingivitis subject 1 (spirochete 7.3 %)); “+” in assay [2] (Gingivitis subject 2 (spirochete 16.7 %)); “++” in assay [2] (Gingivitis subject 3 (spirochete 20.5 %)); “-” in assay [2] (Gingivitis subject 4 (spirochete 6.8 %)); “-” in assay [2] (Gingivitis subject 5 (spirochete 7.3 %)); “+” in assay [2] (Gingivitis subject 6 (spirochete 14.4 %)). In addition, the “hydrolytic activity, visually evaluated” value in assay [2] (Healthy subject 1 (spirochete 0.1 %)) is recorded as “-”; in assay [2] (Healthy subject 2 (spirochete 2.5 %)) it was “+”; in assay [2] (Healthy subject 3 (spirochete 1.1 %)) it was “-”; in assay [2] (Healthy subject 4 (spirochete 0.6 %)), “-”; in assay [2] (Healthy subject 5 (spirochete 1.3 %)), “-”; in assay [2] (Periodontitis subject 1 (spirochete 45.2 %)), “+++”. Further, the “hydrolytic activity, visually evaluated” value in assay [2] (Periodontitis subject 2 (spirochete 30.3 %)), in assay [2] (Periodontitis subject 3 (spirochete 34.6 %)), in assay [2] (Periodontitis subject 4 (spirochete 21.2 %)), in assay [2] (Periodontitis subject 5 (spirochete 40.3 %)) and in assay [2] (Periodontitis subject 6 (spirochete 35.1 %)) was “+++” each time.
Regarding `N=C(N)NCCC[C@H](NC(=O)[C@H](Cc1ccccc1)NC(=O)OCc1ccccc1)C(=O)Nc1ccc2ccccc2c1` [CxFR, N-carbobenzoxy-phenylalanyl-arginine-β-naphthylamide] (Cbz-Phe-Arg-βNA), the “hydrolytic activity (average amount of released β-naphthylamine)” value in the assay on Treponema denticola was “+++ (release amount≥40 nmol/ml)”; in the assay with Bacteroides gingivalis, “+++ (release amount≥40 nmol/ml)”; in assay [1], “- (release amount<5 nmol/ml)”; in the assay on Fusobacterium nucleatum, “- (release amount<5 nmol/ml)”; in the assay on Capnocytophaga sp., “- (release amount<5 nmol/ml)”.
`N=C(N)NCCC[C@H](NC(=O)[C@H](CCCCN)NC(=O)OCc1ccccc1)C(=O)Nc1ccc2ccccc2c1` [CxKR, N-carbobenzoxy-lysyl-arginine-β-naphthylamide] (Cbz-Lys-Arg-βNA): the “hydrolytic activity (average amount of released β-naphthylamine)” value in the assay on Treponema denticola is given as “++ (20 ≤release amount<40 nmol/ml)”; in the assay with Bacteroides gingivalis, “++ (20 ≤release amount<40 nmol/ml)”; in assay [1] it was “- (release amount<5 nmol/ml)”; in the assay with Fusobacterium nucleatum it was “- (release amount<5 nmol/ml)”; with Capnocytophaga sp. it was “- (release amount<5 nmol/ml)”.
For the molecule `N=C(N)NCCC[C@H](NC(=O)OCc1ccccc1)C(=O)N[C@@H](CCCNC(=N)N)C(=O)Nc1ccc2ccccc2c1` [CxRR, N-carbobenzoxy-arginyl-arginine-β-naphthylamide] (Cbz-Arg-Arg-βNA), the “hydrolytic activity (average amount of released β-naphthylamine)” value in the assay with Treponema denticola is reported as “+ +”; in the assay with Bacteroides gingivalis, “+++ (release amount≥40 nmol/ml)”; in assay [1], “- (release amount<5 nmol/ml)”; in the assay with Fusobacterium nucleatum, “- (release amount<5 nmol/ml)”; in the assay on Capnocytophaga sp., “- (release amount<5 nmol/ml)”.
Regarding `N=C(N)NCCC[C@H](NC(=O)[C@@H](N)Cc1ccccc1)C(=O)Nc1ccc2ccccc2c1` [FR, phenylalanyl-arginine-β-naphthylamide] (H-Phe-Arg-βNA), the “hydrolytic activity (average amount of released β-naphthylamine)” value is given as “+ (10 ≤release amount<20 nmol/ml)” with Treponema denticola; “+ (10 ≤release amount<20 nmol/ml)” with Bacteroides gingivalis; “- (release amount<5 nmol/ml)” in assay [1]; “- (release amount<5 nmol/ml)” with Fusobacterium nucleatum; “± (5 ≤release amount<10 nmol/ml)” with Capnocytophaga sp..
Regarding `NCC(=O)N[C@@H](Cc1ccccc1)C(=O)Nc1ccc2ccccc2c1` [GF, glycyl-phenylalanine-β-naphthylamide, reference compound] (H-Gly-Phe-βNA), the “hydrolytic activity (average amount of released β-naphthylamine)” value in the assay on Treponema denticola is listed as “- (release amount<5 nmol/ml)”; in the assay with Bacteroides gingivalis it was “++ (20 ≤release amount<40 nmol/ml)”; in assay [1], “- (release amount<5 nmol/ml)”; in the assay with Fusobacterium nucleatum, “- (release amount<5 nmol/ml)”; in the assay on Capnocytophaga sp. it was “± (5 ≤release amount<10 nmol/ml)”.
Regarding `NCCCC[C@H](NC(=O)CN)C(=O)Nc1ccc2ccccc2c1` [GK, glycyl-lysine-β-naphthylamide, reference compound] (H-Gly-Lys-βNA), the “hydrolytic activity (average amount of released β-naphthylamine)” value with Treponema denticola is “- (release amount<5 nmol/ml)”; in the assay on Bacteroides gingivalis it was “+ (10 ≤release amount<20 nmol/ml)”; in assay [1], “- (release amount<5 nmol/ml)”; in the assay on Fusobacterium nucleatum it was “- (release amount<5 nmol/ml)”; with Capnocytophaga sp. it was “+ (10 ≤release amount<20 nmol/ml)”.
As for `N=C(N)NCCC[C@H](NC(=O)[C@@H](N)CCCCN)C(=O)Nc1ccc2ccccc2c1` [KR, lysyl-arginine-β-naphthylamide] (H-Lys-Arg-βNA), the “hydrolytic activity (average amount of released β-naphthylamine)” value in the assay on Treponema denticola is recorded as “+ (10 ≤release amount<20 nmol/ml)”; in the assay on Bacteroides gingivalis it was “++ (20 ≤release amount<40 nmol/ml)”; in assay [1], “- (release amount<5 nmol/ml)”; in the assay on Fusobacterium nucleatum, “- (release amount<5 nmol/ml)”; with Capnocytophaga sp. it was “+ (10 ≤release amount<20 nmol/ml)”.
As for `N=C(N)NCCC[C@H](NC(=O)[C@H](Cc1ccccc1)NC(=O)[C@@H]1CCCN1)C(=O)Nc1ccc2ccccc2c1` [PFR, prolyl-phenylalanyl-arginine-β-naphthylamide] (H-Pro-Phe-Arg-βNA), the “hydrolytic activity (average amount of released β-naphthylamine)” value in the assay on Treponema denticola is “+++ (release amount≥40 nmol/ml)”; in the assay with Bacteroides gingivalis, “+++ (release amount≥40 nmol/ml)”; in assay [1] it was “- (release amount<5 nmol/ml)”; in the assay on Fusobacterium nucleatum it was “- (release amount<5 nmol/ml)”; with Capnocytophaga sp., “- (release amount<5 nmol/ml)”.
On to `N=C(N)NCCC[C@H](N)C(=O)NCC(=O)Nc1ccc2ccccc2c1` [RG, arginyl-glycine-β-naphthylamide, reference compound] (H-Arg-Gly-βNA), for which the “hydrolytic activity (average amount of released β-naphthylamine)” value in the assay on Treponema denticola is recorded as “- (release amount<5 nmol/ml)”; in the assay on Bacteroides gingivalis, “++ (20 ≤release amount<40 nmol/ml)”; in assay [1] it was “- (release amount<5 nmol/ml)”; with Fusobacterium nucleatum it was “- (release amount<5 nmol/ml)”; in the assay with Capnocytophaga sp., “+ (10 ≤release amount<20 nmol/ml)”.
With `N=C(N)NCCC[C@H](NC(=O)[C@@H](N)CCCNC(=N)N)C(=O)Nc1ccc2ccccc2c1` [RR, arginyl-arginine-β-naphthylamide] (H-Arg-Arg-βNA), the “hydrolytic activity (average amount of released β-naphthylamine)” value in the assay on Treponema denticola is “+++ (release amount≥40 nmol/ml)”; in the assay with Bacteroides gingivalis, “+ (10 ≤release amount<20 nmol/ml)”; in assay [1], “- (release amount<5 nmol/ml)”; in the assay on Fusobacterium nucleatum, “- (release amount<5 nmol/ml)”; in the assay on Capnocytophaga sp. it was “+ (10 ≤release amount<20 nmol/ml)”.
